Values of other authors in publication PMC4781755 (Biochemistry, 2015).

Columns and labels:
hNaDC3 = settings: read-out: Km for succinate, hNaDC3
hNaDC1 = settings: read-out: Km for succinate, hNaDC1

Row | SMILES | inhibition of vcINDY (vcINDY) | Km (hNaDC3) [µM] | Km (hNaDC1) [µM]
1 | O=C(O)CC(O)(CC(=O)O)C(=O)O [citrate] | weak inhibitor |  | 
2 | O=C(O)CCC(=O)O [succinate] |  | ~20 | 500
